Data on one compound can be found in ChEMBL document CHEMBL5154799, “Discovery of a Novel Stilbene Derivative as a Microtubule Targeting Agent Capable of Inducing Cell Ferroptosis” (J Med Chem, 2022).

Data set [1] is described as follows: Half life in ICR mouse at 1 mg/kg, iv single administration measured for 24 hrs post treatment by LC-MS/MS analysis. It counts as ADME, organism-based. Conditions: in vivo.
Data set [2] concerns A2780. The data set can be described thus: Antiproliferative activity against human A2780 cells assessed as inhibition of cell proliferation incubated for 2 hrs by CCK-8 assay. It counts as functional, cell-based. Conditions: DDE = dose-dependent effect.
Data set [3] concerns A2780. The data set can be described thus: Antiproliferative activity against human paclitaxel-resistant A2780/TAX cells assessed as cell viability incubated for 48 hrs by MTT assay. The data set is classed as functional, cell-based. Conditions: A2780, 48 h.
The nature of data set [4]: Tmax in ICR mouse at 1 mg/kg, iv single administration measured for 24 hrs post treatment by LC-MS/MS analysis. It counts as ADME, organism-based. Conditions: in vivo.
Data set [5] relates to A549. The data set can be described thus: Antiproliferative activity against human A549 cells assessed as cell viability incubated for 48 hrs by MTT assay. The data set is classed as functional, cell-based. Particulars: A549, 48 h.
Data set [6] relates to A549. In words: Induction of apoptosis in human A549 cells assessed as cell viability pretreated with ferroptosis inhibitor desferoxamine for 24 hrs followed by incubation with compound at 20 nM and measured after 48 hrs by CCK-8 assay. The data set is classed as functional, cell-based.
A short description of data set [7]: AUC (0 to t) in ICR mouse at 1 mg/kg, iv single administration measured for 24 hrs post treatment by LC-MS/MS analysis. The data set is classed as ADME, organism-based. Particulars: in vivo.
A short description of data set [8]: Toxicity in human A549 cells xenografted in athymic nude BALB/c nude mouse assessed as morphological changes in kidney at 10 mg/kg, ip measured after 30 days by H and E staining based histological analysis. It counts as organism-based. Particulars: in vivo, 720 h, time 30 day.
In the next data set the target is Tubulin (Homo sapiens) (UniProt P68371+Q9H4B7+P0DPH7+P68366+Q13509+Q71U36+P04350+Q3ZCM7+P07437+P68363+Q9BQE3+Q6PEY2+Q13885+Q9BVA1+Q9BUF5). In words: Induction of microtubule disruption in human A549 cells assessed as shrunken spindle shaped microtubule structure at 5 to 20 uM incubated for 12 hrs by immunofluorescence based laser scanning confocal microscopic analysis. It counts as cell-based. Particulars: dose 5-20 µM.

The target in a further data set is Tubulin. The data set can be described thus: Inhibition of [3H]colchicine binding to tubulin (unknown origin) by competitive binding assay. It counts as protein-complex assay, Homo sapiens.

Calls of active or inactive are those of the source. The calls are words filed in the database; no cut-off is given here.

Take `C=C(c1cc(OC)c(OC)c(OC)c1)c1ccc(OC)c(O)c1NC(=O)CO`: the half-life in [1] is 37.2 min. Further, the Activity entry was “Dde” in the data set with A2780 [2] and “Non-Toxic” in [8]. In addition, the IC50 in the data set with A2780 [3] worked out at 40 nM; in the data set with A549 [5], 10 nM; on Tubulin, 1130 nM. The Tmax in [4] amounted to 4.8 min. Also, the outcome in the data set with A549 [6] and at Tubulin (Homo sapiens) was Active. In data set [7], this compound had an AUCt of 350.19 h/ng/mL.
